For test [1], the target named is T1, B2 bradykinin receptor (Homo sapiens, UniProt P30411).
T1 sequence (P30411 whole entry): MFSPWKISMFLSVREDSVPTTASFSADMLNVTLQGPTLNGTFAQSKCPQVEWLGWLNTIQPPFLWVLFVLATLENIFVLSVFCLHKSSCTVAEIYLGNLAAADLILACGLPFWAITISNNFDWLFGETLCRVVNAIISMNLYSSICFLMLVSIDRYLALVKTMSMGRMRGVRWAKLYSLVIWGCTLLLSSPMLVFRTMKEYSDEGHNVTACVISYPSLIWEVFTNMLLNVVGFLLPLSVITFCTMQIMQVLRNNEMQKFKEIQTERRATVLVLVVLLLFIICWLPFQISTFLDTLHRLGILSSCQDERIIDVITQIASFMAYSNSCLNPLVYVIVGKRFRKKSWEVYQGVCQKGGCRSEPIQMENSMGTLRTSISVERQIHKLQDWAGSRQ
As to the kind of experiment: (§1) Tested for binding affinity against human IMR-90 Bradykinin receptor B2.

Test [2] has as its target T1, B2 bradykinin receptor. As to the kind of experiment: ChEBML_40431.
Text: as §1

The structures appear in SMILES notation.

Broadly, the Ki is the dissociation constant of the complex between target and ligand, obtained from inhibition or displacement. Low readings indicate a stronger hold on the target, high ones a looser hold on the target. With `CCCC[P+](CCCC)(CCCC)Cc1ccc(NC(=O)C2Cc3ccccc3CN2C(=O)[C@H](CCc2ccccc2)N/C(=N/C2CCCCC2)NC2CCCCC2)cc1` (stereo partly drawn) [tributyl[(4-{2-[(2S)-2-{[(1E)-(cyclohexylamino)(cyclohexyliminiumyl)methyl]amino}-4-phenylbutanoyl]-1,2,3,4-tetrahydroisoquinoline-3-amido}phenyl)methyl]phosphanium dichloride], the Ki on B2 bradykinin receptor [1] and at B2 bradykinin receptor [2] was 1000 nM throughout.

These data come from BindingDB's records for doi:10.1016/0960-894X(95)00037-T (1995).
